Assay results taken from patent publication US20240132484A1, “BROAD SPECTRUM ANTIVIRAL COMPOUNDS TARGETING THE SKI COMPLEX” (priority 2020, published 2024).
Several values for one entry are separate records, joined by “and”; a condition that tells them apart may be missing. Identical values can stand only once. Like-named read-outs stand apart in the source and are kept apart here.

Experiments:
SARS2 = assay type: cell-based, SARS-CoV-2; conditions: for Percentage Inhibition Average 1 μM / Screening data (Relative infection to DMSO controls) Average 1 μM: SARS2, 1 μM; for Screening data (Relative infection to DMSO controls) Average 1 μM / Screening data (Relative infection to DMSO controls) Average 5 μM / Screening data (Relative infection to DMSO controls) Average 10 μM / Screening data (Relative infection to DMSO controls) Average 25 μM / Screening data (Relative infection to DMSO controls) Average 50 μM / Average (relative infection to DMSO over the 5 tested concentrations): 100=DMSO control; for Percentage Inhibition Average 5 μM / Screening data (Relative infection to DMSO controls) Average 5 μM: SARS2, 5 μM; for Percentage Inhibition Average 10 μM / Screening data (Relative infection to DMSO controls) Average 10 μM: SARS2, 10 μM; for Percentage Inhibition Average 25 μM / Screening data (Relative infection to DMSO controls) Average 25 μM: SARS2, 25 μM; for Percentage Inhibition Average 50 μM / Screening data (Relative infection to DMSO controls) Average 50 μM: SARS2, 50 μM; for Average (relative infection to DMSO over the 5 tested concentrations): SARS2, average over 1 to 50 uM
cells (nuclei count) = conditions: for Relative cell count to DMSO controls, Average 1 μM / Relative cell count to DMSO controls, Average 5 μM / Relative cell count to DMSO controls, Average 10 μM / Relative cell count to DMSO controls, Average 25 μM / Relative cell count to DMSO controls, Average 50 μM: toxicity data, 100=DMSO control; for Relative cell count to DMSO controls, Average (for correlation analysis): average value over the 5 tested concentrations (1 to 50 uM)

| Structure (SMILES) | Percentage Inhibition Average 1 μM (SARS2) [%] | Screening data (Relative infection to DMSO controls) Average 1 μM (SARS2) | Percentage Inhibition Average 5 μM (SARS2) [%] | Screening data (Relative infection to DMSO controls) Average 5 μM (SARS2) | Percentage Inhibition Average 10 μM (SARS2) [%] | Screening data (Relative infection to DMSO controls) Average 10 μM (SARS2) | Percentage Inhibition Average 25 μM (SARS2) [%] | Screening data (Relative infection to DMSO controls) Average 25 μM (SARS2) | Percentage Inhibition Average 50 μM (SARS2) [%] | Screening data (Relative infection to DMSO controls) Average 50 μM (SARS2) | Average (relative infection to DMSO over the 5 tested concentrations) (SARS2) | Relative cell count to DMSO controls, Average 1 μM (cells (nuclei count)) | Relative cell count to DMSO controls, Average 5 μM (cells (nuclei count)) | Relative cell count to DMSO controls, Average 10 μM (cells (nuclei count)) | Relative cell count to DMSO controls, Average 25 μM (cells (nuclei count)) | Relative cell count to DMSO controls, Average 50 μM (cells (nuclei count)) | Toxicity Data, Average, Mean (relative to DMSO control) (cells (nuclei count); Average of Exp 1-3, 1 uM) [%] | Toxicity Data, Average, Mean (relative to DMSO control) (cells (nuclei count); Average of Exp 1-3, 5 uM) [%] | Toxicity Data, Average, Mean (relative to DMSO control) (cells (nuclei count); Average of Exp 1-3, 10 uM) [%] | Toxicity Data, Average, Mean (relative to DMSO control) (cells (nuclei count); Average of Exp 1-3, 25 uM) [%] | further results |
| --- | --- | --- | --- | --- | --- | --- | --- | --- | --- | --- | --- | --- | --- | --- | --- | --- | --- | --- | --- | --- | --- |
| Cc1ccc(CN(CCN(C)C)Cc2ccc(C)s2)o1 [SILCS7] | 6.07 | 93.93 | 7.19 | 92.81 | 42.29 | 57.71 | 58.04 | 41.96 | 68.91 | 31.09 | 63.50 | 110.82 | 103.66 | 106.58 | 103.49 | 73.73 | 110.82 | 103.66 | 106.58 | 103.49 | Toxicity Data, Average, Mean (relative to DMSO control) (cells (nuclei count); Average of Exp 1-3, 50 uM): 73.73%; Relative cell count to DMSO controls, Average (for correlation analysis) (cells (nuclei count)): 99.66 |
| CN(C)CCN(Cc1ccsc1)Cc1ccc(CO)o1 [SILCS9] | −13.21 | 113.21 | −20.66 | 120.66 | −20.58 | 120.58 | −11.45 | 111.45 | 4.02 | 95.98 | 112.38 | 105.37 | 103.56 | 111.19 | 92.21 | 60.67 | 105.37 | 103.56 | 111.19 | 92.21 | Percentage Infection Relative to DMSO Control, Average, Mean (SARS2): 95.98% and 111.45% and 120.58% and 120.66% and 113.21%; SARS2 antiviral activity (SARS2): significant loss of activity; Toxicity Data, Average, Mean (relative to DMSO control) (cells (nuclei count); Average of Exp 1-3, 50 uM): 60.67%; Relative cell count to DMSO controls, Average (for correlation analysis) (cells (nuclei count)): 94.60 |
